Earlier results in patent publication US20170100348A1, “Treatment Regime for Chronic Sinusitis” (priority 2015, published 2017).

Experiments:
Pseudomonas aeruginosa = conditions: bacteria and phenolic compound incubated together on a plate
microbial organisms = conditions: background statement
Pseudomonas aerunginosa = conditions: background statement, FIG. 1

| Compound | biofilm formation compared to the control (Pseudomonas aeruginosa) | bacteriocidal concentration (microbial organisms) | bacteriostatic concentration (microbial organisms) | fungicidal concentration (fungi) | concentration with activity against Pseudomonas aerunginosa (Pseudomonas aerunginosa) | preventing biofilm formation (streptococcus mutans) |
| --- | --- | --- | --- | --- | --- | --- |
| O=C(O[C@@H]1Cc2c(O)cc(O)cc2O[C@@H]1c1cc(O)c(O)c(O)c1)c1cc(O)c(O)c(O)c1 [epigallocatechin gallate] | significant reduction in formation of biofilm |  |  |  |  |  |
| Catechin | significant reduction in formation of biofilm |  |  |  |  |  |
| O=C(OC[C@H]1O[C@@H](OC(=O)c2cc(O)c(O)c(OC(=O)c3cc(O)c(O)c(O)c3)c2)[C@H](OC(=O)c2cc(O)c(O)c(OC(=O)c3cc(O)c(O)c(O)c3)c2)[C@@H](OC(=O)c2cc(O)c(O)c(OC(=O)c3cc(O)c(O)c(O)c3)c2)[C@@H]1OC(=O)c1cc(O)c(O)c(OC(=O)c2cc(O)c(O)c(O)c2)c1)c1cc(O)c(O)c(OC(=O)c2cc(O)c(O)c(O)c2)c1 [tannic acid] | significant reduction in formation of biofilm |  |  |  |  |  |
| Oc1ccccc1 [Phenol] | significant reduction in formation of biofilm | 0.04-1.0% | greater than 0.02% | greater than 1.3% | 0.5-1.0% | effective |
